From US20260297042A1, “BIARYLAMIDE DERIVATIVES AND THEIR USE AS PKMYT1 INHIBITORS” (CANCER RESEARCH TECHNOLOGY LIMITED, priority 2023, published 2026) come the findings set out here.

pIC50: −log10 of the molar value.

The target in one assay is T1, Human PKMYT1 (Homo sapiens, UniProt Q99640).
T1 construct: Human PKMYT1 75-362 was cloned as a TEV cleavable 6xHis fusion; 6xHis (TEV cleavable) (cleaved yes); made in house; host or cells: bacterial cells
T1 sequence (Q99640 75-362): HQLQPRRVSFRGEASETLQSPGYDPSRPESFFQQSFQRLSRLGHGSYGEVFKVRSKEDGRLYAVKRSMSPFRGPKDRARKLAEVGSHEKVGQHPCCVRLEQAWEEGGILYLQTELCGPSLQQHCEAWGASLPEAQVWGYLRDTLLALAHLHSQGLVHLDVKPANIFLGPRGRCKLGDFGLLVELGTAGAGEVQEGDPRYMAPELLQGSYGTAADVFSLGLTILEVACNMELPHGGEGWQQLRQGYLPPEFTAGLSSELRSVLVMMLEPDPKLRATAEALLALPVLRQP
As to the kind of experiment: PKMYT1 biochemical ADP-Glo enzymatic assay. The conditions noted are these: ADP-Glo. Summed up: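 Measures inhibition of PKMYT1 autonomous ATP hydrolysis: bacterially expressed human enzyme (75-362, tag cleaved) at 15 nM with 500 µM ATP for 60 min at 26 °C, then ADP-Glo Max detection. IC50s accepted only when replicates agreed within 3-fold and curve r2 exceeded 0.9.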
(ADP-Glo turns the ADP formed in a reaction into a luminescent signal.)

Assay [1] has as its target T2, Cellular PKMYT1 Biomarker CDK1 pT14 (Homo sapiens, UniProt Q99640).
T2 construct: read-out CDK1 phospho-T14 immunoblot
T2 sequence (Q99640 1-499): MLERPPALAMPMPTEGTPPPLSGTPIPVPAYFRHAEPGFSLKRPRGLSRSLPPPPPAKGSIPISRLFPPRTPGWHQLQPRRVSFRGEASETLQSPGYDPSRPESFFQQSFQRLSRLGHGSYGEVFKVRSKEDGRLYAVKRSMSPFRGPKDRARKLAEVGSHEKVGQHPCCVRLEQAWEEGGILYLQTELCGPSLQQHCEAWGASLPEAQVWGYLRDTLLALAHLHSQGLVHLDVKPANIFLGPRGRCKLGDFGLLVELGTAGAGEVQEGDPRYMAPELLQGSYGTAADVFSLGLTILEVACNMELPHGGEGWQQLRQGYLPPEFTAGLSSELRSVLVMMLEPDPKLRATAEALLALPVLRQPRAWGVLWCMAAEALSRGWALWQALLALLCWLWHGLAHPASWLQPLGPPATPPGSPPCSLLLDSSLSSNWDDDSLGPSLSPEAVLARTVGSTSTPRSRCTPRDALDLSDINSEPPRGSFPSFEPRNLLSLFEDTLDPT
As to the kind of experiment: Inhibition of cellular PKMYT1 biomarker CDK1 pT14 in OVCAR 3 cells (immunoblot). The assay is classed as cell-based. As to conditions: 20 hours incubation. The method, then:
To determine compound PKMYT1 IC50 in a cellular assay, OVCAR 3 cells were incubated at 37° C. in 5% CO2 atmosphere. The cells were maintained in RPMI medium supplemented with 20% foetal bovine serum, 1X non essential amino acids, 1 mM sodium pyruvate, Glutamax and insulin. Cells were seeded into 12-well plates at low density (50,000-200,000 cells per well), grown to confluence (~350-400,000 cells per well) and then treated with a range of concentrations of PKMYT1 inhibitors. The cells were incubated 20 hours and then harvested into 1X Laemmli Sample Buffer (BIORAD) without 2-mercaptoethanol, heated to 95° C. for 5 min, centrifuged and sonicated using a microprobe for 15 sec, 21W to shear the DNA.
The samples were analysed by immunoblot on a Jess Automated Western Blot System (BioTechne). The samples were separated using the 12-230 kDa Separation Module (BioTechne,) and blotted using an anti-CDK1 phospho T14 antibody (Abcam, #ab58509) and an anti-vinculin antibody (Abcam, #126002). Specific binding was detected by fluorescence using the Anti-Rabbit Detection Module (BioTechne, #DM-001), quantified using Compass for Simple Western software, and IC50 values were calculated by regression analysis in GraphPad Prism.
(In western blotting, separated proteins are transferred to a membrane and probed.)

The next assay has as its target T3, WEE1 (Homo sapiens, UniProt P30291).
T3 construct: purchased Thermo Fisher PR7373A
As to the kind of experiment: Selectivity versus WEE1 assay (ADP-Glo enzymatic assay). As to conditions: for pIC50: ADP-Glo; for PKMYT1 vs. WEE1 selectivity: fold difference in selectivity for PKMYT1 over WEE1. The assay is classed as biochemical. Summed up: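 Same format as the PKMYT1 assay: WEE1 at 15 nM final with 30 µM ATP, 60 min at 26° C, ADP-Glo luminescence detection, IC50 by dose-response fitting.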

A further assay deals with OVCAR 3 cells. As to the kind of experiment: Cancer cell line proliferation assay, ATP-based cell viability (Cell Titre Glow), OVCAR 3 (CCNE1-amplified). The conditions noted are these: KYSE30 (normal CCNE1) GI50 vs. OVCAR 3 (CCNE1-amplified) GI50. Put shortly:
(§1)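 Cells were treated with PKMYT1 inhibitors, then proliferation was assessed with CellTiter-Glo and luminescence read. GI50 values were fitted from the resulting data.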

Another assay concerns KYSE-30 cells. As to the kind of experiment: Cancer cell line proliferation assay, ATP-based cell viability (Cell Titre Glow), KYSE-30 (normal CCNE1). The conditions noted are these: Homo sapiens, KYSE-30 cells (normal CCNE1), concentration that achieves 50% cell growth proliferation inhibition, read-out: KYSE30 Gl50. Put shortly: as §1
The mark [2] stands for this setting: PKMYT1 kinase domain 15 nM, banded values.
Where [3] appears, read: 15 nM PKMYT1 kinase domain, 500 µM ATP, 60 minutes at 26° C., banded.
Setting [4] is: 15 nM WEE1, 60 minutes at 26° C., banded.
Setting [5] is: banded, ">N" = at least in this band but could be higher.

T3 sequence (P30291 whole entry): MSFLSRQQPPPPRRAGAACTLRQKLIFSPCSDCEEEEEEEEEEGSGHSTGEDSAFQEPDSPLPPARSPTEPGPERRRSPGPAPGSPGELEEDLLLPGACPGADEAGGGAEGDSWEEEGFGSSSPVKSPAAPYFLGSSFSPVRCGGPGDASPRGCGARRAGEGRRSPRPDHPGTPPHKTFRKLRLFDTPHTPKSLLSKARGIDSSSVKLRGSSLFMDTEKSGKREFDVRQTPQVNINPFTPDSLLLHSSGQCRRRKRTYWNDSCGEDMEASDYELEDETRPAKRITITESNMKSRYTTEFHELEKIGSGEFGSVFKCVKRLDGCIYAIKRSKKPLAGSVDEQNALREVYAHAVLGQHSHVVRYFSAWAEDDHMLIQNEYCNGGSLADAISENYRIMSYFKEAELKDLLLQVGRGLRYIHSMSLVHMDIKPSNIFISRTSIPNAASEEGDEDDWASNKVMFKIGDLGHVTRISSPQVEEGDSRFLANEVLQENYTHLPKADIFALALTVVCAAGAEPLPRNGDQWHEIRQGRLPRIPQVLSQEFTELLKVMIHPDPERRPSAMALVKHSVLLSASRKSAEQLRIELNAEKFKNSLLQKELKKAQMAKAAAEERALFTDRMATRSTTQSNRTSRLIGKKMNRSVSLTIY

Broadly, the pIC50 is the negative decadic logarithm of the IC50, by convention in mol/L. Low readings indicate a high IC50, high ones a low IC50. Consider `Cc1ccc(O)c(C)c1NC(=O)c1cnc(Nc2cccc(F)n2)s1` [BAA-406, 2-((6-fluoropyridin-2-yl)amino)-N-(3-hydroxy-2,6-dimethylphenyl)thiazole-5-carboxamide], for which the negative-log IC50 (pIC50) on Human PKMYT1 (setting [2]) was above 7.30; in assay [1], above 7.00; against WEE1 (WEE1 15 nM, banded values), 4.96 to 6.00. On WEE1 (banded), the “PKMYT1 vs. WEE1 selectivity” value is “X (100-<1000 fold)”.
Regarding `Cn1cc(Br)c(Nc2ncc(C(=O)Nc3c(Cl)ccc(O)c3F)s2)n1` [BAA-471, 2-((4-Bromo-1-methyl-1H-pyrazol-3-yl)amino)-N-(6-chloro-2-fluoro-3-hydroxyphenyl)thiazole-5-carboxamide], the pIC50 against Human PKMYT1 (setting [2]) is 6.00 to 7.30; in assay [1], 6.00 to 7.00; on WEE1 (WEE1 15 nM, banded values), below 4.96. Besides, on WEE1 (banded), the “PKMYT1 vs. WEE1 selectivity” value was “X (100-<1000 fold)”.
On the same counts, the results for `Cc1ccc(O)c(C)c1NC(=O)c1cnc(Nc2n[nH]cc2F)s1` [BAA-593, 2-((4-Fluoro-1H-pyrazol-3-yl)amino)-N-(3-hydroxy-2,6-dimethylphenyl)thiazole-5-carboxamide] are above 7.30, 6.00 to 7.00, 4.96 to 6.00 and “X (100-<1000 fold)”.
`CCN(CC)C(=O)C(CO)n1cc(C)c(Nc2ncc(C(=O)Nc3c(C)ccc(O)c3C)s2)n1` (stereo not shown) [BAA-576, 2-((1-(1-(diethylamino)-3-hydroxy-1-oxopropan-2-yl)-4-methyl-1H-pyrazol-3-yl)amino)-N-(3-hydroxy-2,6-dimethylphenyl)thiazole-5-carboxamide]: the negative-log IC50 (pIC50) against Human PKMYT1 (setting [2]) was above 7.30; in assay [1], above 7.00; against WEE1 (WEE1 15 nM, banded values) it was 4.96 to 6.00. At WEE1 (banded), the “PKMYT1 vs. WEE1 selectivity” value is “X (100-<1000 fold)”.
Turning to `Cc1cn(-c2cn(C)nc2C)nc1Nc1ncc(C(=O)Nc2c(C)ccc(O)c2C)s1` [BAA-392, N-(3-hydroxy-2,6-dimethylphenyl)-2-((1′, 3′,4-trimethyl-1′H-[1,4′-bipyrazol]-3-yl)amino)thiazole-5-carboxamide], the pIC50 against Human PKMYT1 (setting [3]) was above 7.30; against WEE1 (setting [4]), 4.96 to 6.00. In addition, the “Selectivity ratio KYSE30 Gl50 vs. OVCAR3 Gl50” value in the assay with OVCAR 3 cells is “Y (>20 fold)”. The GI50 with KYSE-30 cells is above 5 µM. The “PKMYT1 vs. WEE1 selectivity” value on WEE1 (setting [5]) is listed as “X (100-<1000 fold)”.
Consider `Cc1cn(CC(=O)N2CCCC2C)nc1Nc1ncc(C(=O)Nc2c(C)ccc(O)c2C)s1` (stereo not shown) [BAA-492, N-(3-hydroxy-2,6-dimethylphenyl)-2-((4-methyl-1-(2-(2-methylpyrrolidin-1-yl)-2-oxoethyl)-1H-pyrazol-3-yl)amino)thiazole-5-carboxamide], for which the pIC50 on Human PKMYT1 (setting [2]) was above 7.30; against WEE1 (WEE1 15 nM, banded values), 4.96 to 6.00. The “Selectivity ratio KYSE30 Gl50 vs. OVCAR3 Gl50” value in the assay on OVCAR 3 cells is recorded as “Y (>20 fold)”. Besides, in the assay with KYSE-30 cells, the GI50 is above 5 µM. Also, the “PKMYT1 vs. WEE1 selectivity” value at WEE1 (banded) was “X (100-<1000 fold)”.
On the same counts, the results for `COC[C@@H]1CCCN1C(=O)Cn1cc(C)c(Nc2ncc(C(=O)Nc3c(C)ccc(O)c3C)s2)n1` [BAA-606, (S)-N-(3-hydroxy-2,6-dimethylphenyl)-2-((1-(2-(2-(methoxymethyl)pyrrolidin-1-yl)-2-oxoethyl)-4-methyl-1H-pyrazol-3-yl)amino)thiazole-5-carboxamide] are above 7.30, 4.96 to 6.00, “Y (>20 fold)”, 0.5 to 5 µM and “X (100-<1000 fold)”.
`Cc1cn(-c2cccc(C(F)(F)F)c2)nc1Nc1ncc(C(=O)Nc2c(C)ccc(O)c2C)s1` [BAA-370, N-(3-hydroxy-2,6-dimethylphenyl)-2-((4-methyl-1-(3-(trifluoromethyl)phenyl)-1H-pyrazol-3-yl)amino)thiazole-5-carboxamide]: the pIC50 is above 7.30 at Human PKMYT1 (setting [3]) and below 4.96 against WEE1 (setting [4]). For the same compound, the “Selectivity ratio KYSE30 Gl50 vs. OVCAR3 Gl50” value in the assay on OVCAR 3 cells was “X (3-20 fold)”. Also, in the assay on KYSE-30 cells, the GI50 was 0.5 to 5 µM. Further, on WEE1 (setting [5]), the “PKMYT1 vs. WEE1 selectivity” value was “X (100-<1000 fold)”.
As to `COCCn1cc(C)c(Nc2ncc(C(=O)Nc3c(C)ccc(O)c3C)s2)n1` [BAA-490, N-(3-hydroxy-2,6-dimethylphenyl)-2-((1-(2-methoxyethyl)-4-methyl-1H-pyazol-3-yl)amino)thiazole-5-carboxamide], the negative logarithm of the IC50 (pIC50) against Human PKMYT1 (setting [2]) was above 7.30; on WEE1 (WEE1 15 nM, banded values), 4.96 to 6.00. Moreover, the “Selectivity ratio KYSE30 Gl50 vs. OVCAR3 Gl50” value in the assay on OVCAR 3 cells is listed as “Y (>20 fold)”. For the same compound, the GI50 with KYSE-30 cells is above 5 µM. For the same compound, the “PKMYT1 vs. WEE1 selectivity” value on WEE1 (banded) is recorded as “X (100-<1000 fold)”.
`COc1cccc(Nc2ncc(C(=O)Nc3c(C)ccc(O)c3C)s2)n1` [BAA-416, N-(3-hydroxy-2,6-dimethylphenyl)-2-((6-methoxypyridin-2-yl)amino)thiazole-5-carboxamide]: the pIC50 against Human PKMYT1 (setting [2]) was above 7.30; at WEE1 (WEE1 15 nM, banded values), 4.96 to 6.00. Besides, the “Selectivity ratio KYSE30 Gl50 vs. OVCAR3 Gl50” value in the assay on OVCAR 3 cells is reported as “Y (>20 fold)”. For the same compound, in the assay on KYSE-30 cells, the GI50 is 0.5 to 5 µM. Further, the “PKMYT1 vs. WEE1 selectivity” value on WEE1 (banded) was “X (100-<1000 fold)”.
For the compound `Cc1ccc(NS(=O)(=O)C(C)(C)C)nc1Nc1ncc(C(=O)Nc2c(C)ccc(O)c2C)s1.Cl` [BAA-335, 2-((6-((1,1-dimethylethyl)sulfonamido)-3-methylpyridin-2-yl)amino)-N-(3-hydroxy-2,6-dimethylphenyl)thiazole-5-carboxamide hydrochloride], the pIC50 against Human PKMYT1 (setting [3]) was above 7.30; against WEE1 (setting [4]), below 4.96. For the same compound, the “Selectivity ratio KYSE30 Gl50 vs. OVCAR3 Gl50” value in the assay on OVCAR 3 cells is on record as “Y (>20 fold)”. Moreover, the GI50 in the assay on KYSE-30 cells lay within 0.5 to 5 µM. Further, the “PKMYT1 vs. WEE1 selectivity” value at WEE1 (setting [5]) is “Y (1000-5000 fold)”.
`C=CC(=O)Nc1ccc(C)c(Nc2ncc(C(=O)Nc3c(C)ccc(O)c3C)s2)n1` [BAA-341, 2-((6-Acrylamido-3-methylpyridin-2-yl)amino)-N-(3-hydroxy-2,6-dimethylphenyl)thiazole-5-carboxamide]: the pIC50 was above 7.30 against Human PKMYT1 (setting [3]) and 4.96 to 6.00 against WEE1 (setting [4]). Also, the “Selectivity ratio KYSE30 Gl50 vs. OVCAR3 Gl50” value in the assay with OVCAR 3 cells is recorded as “X (3-20 fold)”. Further, the GI50 with KYSE-30 cells was 0.5 to 5 µM. Also, on WEE1 (setting [5]), the “PKMYT1 vs. WEE1 selectivity” value is “X (100-<1000 fold)”.
Taken in the same sequence, the figures for `Cc1ccc(O)c(C)c1NC(=O)c1cnc(Nc2ccn(CC(C)C)n2)s1` [BAA-016, N-(3-hydroxy-2,6-dimethyl-phenyl)-2-[(1-isobutylpyrazol-3-yl)amino]thiazole-5-carboxamide] were above 7.30, 4.96 to 6.00, “X (3-20 fold)”, 0.5 to 5 µM and “W (10-<100 fold)”.
